One series relates to HIV-1ADA. In words: RT activity in supernatant of HIV-1ADA-infected monocytes. It is filed as cell-based, HIV-1ADA in primary human monocytes. As to the method: The cultures were treated with none or between 10^-12 and 10^-6M Compound No. 2 and, simultaneously with the beginning of treatment, the cells were exposed to the monocyte-tropic strain HIV-1ADA about 0.01 TCID50 /cell (1 ng p24/10^6 cells) for 2 hours. Samples were withdrawn at days 3, 6, 10, 14 and 17 after infection and assayed for reverse transcription activity.
FIGS. 2B and 2C show the effects of various concentrations of Compound No. 2 on the production of HIV-1 in monocyte cultures not supplemented with M-CSF. In these studies MOI, as determined by concentration of p24 antigen was; FIG. 2B (8 ng/10^6 cells) and FIG. 2C (0.8 ng/10^6 cells).
Primary human monocytes were obtained from peripheral blood by Ficoll-Hypaque centrifugation and adherence to plastic as described previously. Gartner S. P., et al., 1986, Science 233:215. Briefly, after Ficoll-Hypaque (Pharmacia) separation, PBMCs were washed 4 times with DMEM (the last wash was done at 800 rpm to remove platelets) and resuspended in monocyte culture medium [DMEM supplemented with 1 mM glutamine, 10% heat-inactivated human serum, 1% penicillin+streptomycin mixture (Sigma)] at a density of 6×10^6 cells/ml. Cells were seeded in 24-well plates (1 ml per well) and incubated for 2 h at 37° C., 5% CO2. Following incubation, cells were washed 3 times with DMEM to remove non-adherent cells and incubation was continued in monocyte culture medium supplemented with 250 U/ml human M-CSF (Sigma). Cells were allowed to mature for 7 days prior to infection with the monocyte-tropic strain, HIV-1ADA. Nuovo, G. J., et al., 1992, Diagn. Mol. Pathol. 1:98. Two hours after infection, cells were washed with medium and cultured in RPMI supplemented with 10% human serum. […]
Macrophage-tropic strain HIV-1ADA was amplified in primary human monocytes and concentrated to produce stock with TCID50 of about 10^5 /ml. The concentration of HIV-1 was determined by immunoassay of viral p24, concentration; using a conversion factor of […].
(§1) For the reverse transcriptase (RT) assay, 10 μl of culture supernatant was added to 40 μl of reaction mixture (final composition was 50 mM Tris-HCl, pH 7.8; 20 mM KCl; 5 mM MgCl2; 1 mM DTT; 0.1% Triton X-100; 0.2 OD/ml polyA; 0.2 OD/ml oligo(dT)12-18; and 40 μCi/ml ^3 H-dTTP (76 Ci/mmol, DuPont) and incubated 2 hr at 37° C. 5 μl of the reaction mixture was then spotted onto the DE 81 (Whatman) paper. Paper was air dried and washed 5 times with 5% Na2 HPO4, followed by rinsing with distilled water. After air drying, paper was put on a Flexi Filter plate (Packard), covered with scintillation fluid and counted in a Top Count Microplate Counter (Packard). Results are expressed as counts per minute in 1 ml of supernatant (cpm/ml).

The subject of a further series is monocyte cultures. In words: Cytotoxicity in monocyte cultures (LDH release, trypan blue exclusion). It is filed as cell-based, human. Particulars: up to 10 μM; LDH release and trypan blue exclusion. On the technique in general: LDH in the medium is a marker of cell lysis.
The next series deals with HIV-1. In words: AZT and Compound No. 2 in combination on HIV-1 infected monocyte cultures (RT activity). It is filed as cell-based, HIV-1 in human monocyte cultures. Particulars: for RT activity: 100 nM Compound No. 2, AZT 0. As to the method: Primary human monocytes were obtained from peripheral blood by Ficoll-Hypaque centrifugation and adherence to plastic as described previously. Gartner S. P., et al., 1986, Science 233:215. Briefly, after Ficoll-Hypaque (Pharmacia) separation, PBMCs were washed 4 times with DMEM (the last wash was done at 800 rpm to remove platelets) and resuspended in monocyte culture medium [DMEM supplemented with 1 mM glutamine, 10% heat-inactivated human serum, 1% penicillin+streptomycin mixture (Sigma)] at a density of 6×10^6 cells/ml. Cells were seeded in 24-well plates (1 ml per well) and incubated for 2 h at 37° C., 5% CO2. Following incubation, cells were washed 3 times with DMEM to remove non-adherent cells and incubation was continued in monocyte culture medium supplemented with 250 U/ml human M-CSF (Sigma). Cells were allowed to mature for 7 days prior to infection with the monocyte-tropic strain, HIV-1ADA. Nuovo, G. J., et al., 1992, Diagn. Mol. Pathol. 1:98. Two hours after infection, cells were washed with medium and cultured in RPMI supplemented with 10% human serum. In experiments where PCR analysis was performed, virus was pretreated with RNAse-free DNAse (Boehinger-Mannheim)for 2 h at room temperature and then filtered though a 0.2 μm pore nitrocellulose filter prior to infection.
as §1
In view of these premises, the effects on HIV-1 replication in human monocyte cultures of the various concentrations of AZT, alone or in combination with 100 nM Compound No. 2, were tested using the protocols of Sections 6.2.1 and 6.2.2. Drugs were added to the monocyte cultures together with HIV-1 at about 10^5 TCID/ml. The concentration of drugs was maintained on refeeding. HIV-1 replication was assessed by assay of the supernatant for reverse transcriptase activity. The results are expressed as mean±std. dev. (cpmx10^-3) in Table V.

The test system of series [1] is nuclear importation of HIV-1 preintegration complexes. Put plainly: Nuclear importation of HIV-1 preintegration complexes (2-LTR circle PCR) in primary human monocytes. It counts as cell-based, HIV-1ADA in primary human monocytes. The conditions noted are these: Monocyte, 100 nM, 48 and 96 hours post infection. The text has this:
The effects of Compound No. 2 on the nuclear importation of HIV-1 preintegration complexes can be directly measured by detecting the presence of circularized duplex HIV-1 genomic DNA. These duplex circles can be readily detected by PCR amplification using primers which span the junction of the circularized HIV-1 genome. Bukrinsky, M. I., et al., 1992, Proc.Natl.Acad.Sci. 89:6580-84.
Briefly, the efficiency of nuclear translocation was estimated by the ratio between the 2-LTR- and pol-specific PCR products, which reflects the portion of 2-LTR circle DNA molecules as a fraction of the entire pool of intracellular HIV-1 DNA. Viral 2-LTR circle DNA is formed exclusively within the nucleus of infected cells and thus is a convenient marker of successful nuclear translocation. […]
Total DNA was extracted from HIV-1-infected cells using the IsoQuick extraction kit (Microprobe Corp., Garden Grove, Calif.). DNA was then analyzed by PCR using primer pairs that amplify the following sequences: a fragment of HIV-1 (LTR/gag) that is the last one to be synthesized during reverse transcription and therefore represents the pool of full-length viral DNA molecules; a fragment of polymerase gene (pol); a 2-LTR junction region found only in HIV-1 2-LTR circle DNA molecules; or a fragment of the cellular a-tubulin gene. […]

Entries after “also recorded” stand apart in the source; their conditions may differ.

The term IC50 denotes the concentration that inhibits the measured activity by half. Regarding `CC(=O)c1cc(Nc2cc(C)[n+](C)c(N)n2)cc(C(C)=O)c1.[I-]` [Compound No. 2, 2-amino-4-(3,5-diacetylphenyl)amino-1,6-dimethylpyrimidinium iodide], the IC50 with HIV-1ADA (Homo sapiens, Monocyte, FIG. 2A, M-CSF, 1 ng p24/10^6 cells) was 0.1 to 1 nM; in the series on HIV-1ADA (Homo sapiens, Monocyte, FIG. 2B, without M-CSF, 8 ng p24/10^6 cells), around 10 nM; with HIV-1ADA (Homo sapiens, Monocyte, FIG. 2C, without M-CSF, 0.8 ng p24/10^6 cells) it was below 1 nM; in the series with HIV-1ADA (Human immunodeficiency virus 1, Monocyte, FIG. 2, HIV-1 replication in monocytes, estimated) it was 0.1 to 1 nM. Besides, in the series with monocyte cultures, the cytotoxic effect entry is “without toxic effects; also recorded: no cytotoxic effect was observed”. The inhibition at 0.1 µM in the series with HIV-1 (Human immunodeficiency virus 1, Monocyte, 264 h, day-11, 100 nM Compound No. 2 alone, read-out: reduction in RT activity) was around 60%; in series [1], above 90%. The RT activity in the series with HIV-1 (day-7) turned out to be 0.37 ± 0.07 cpmx10^-3; in the series on HIV-1 (day-11), 0.72 ± 0.30 cpmx10^-3. Also, the activity at 0.1 µM in series [1] (relative to drug free control, read-out: Translocation Index) was below 10%.

The record behind these values is US5840893A, “Compounds for treating infectious diseases” (priority 1996, dated 1998).
